Data set [1] relates to histamine-induced bronchoconstriction. Nature of the data set: BD: bronchodilator activity against histamine-induced bronchoconstriction in the guinea pig. Format: in vivo. The conditions noted are these: for potency, in words: 4280 at 20 mpK po vs 4258 at 15 mpK po; for lethal (animals) / dose showing lethal effects: guinea pig; for dose showing lethal effects: po. The method, then: A modification of the method of Siegmund. O. H., et.al., J. Pharmacol. and Exp. Therap. 90:254-9, 1947, is used. […] Times for prostration are recorded.

Data set [2] has as its system guinea pig tracheal chain. Nature of the data set: SP: spasmolytic activity in vitro, guinea pig tracheal chain preparation. The conditions noted are these: Cavia porcellus; given as fraction of molar, e.g. M/1000; read-out: SP in vitro, C: molar (M) concentration required to produce maximum relaxation. Format: cell-based. From the text: SP: Spasmolytic activity evaluated in vitro using guinea pig tracheal chain preparation, and expressed as the molar (M) concentration required to produce maximum relaxation. The method used in that of Castillo and de Beer, J. Pharmac. Expt. Therap. 90, 104, 1947.

The subject of data set [3] is antigen-induced bronchconstriction. Nature of the data set: AA: antiallergy (anti-anaphylactic) activity against antigen-induced bronchoconstriction in sensitized rats. Particulars: 1h.
From the text: The animals are subdivided into control and test groups.
Test animals receive a drug either orally, intraperitoneally or intravenously and are challenged with intravenous antigen at fixed time intervals after dosing. Antigen-induced increases in tracheal pressure are monitored and reflect the extent of bronchoconstriction.
The subject of data set [4] is histamine-induced bronchoconstriction. Nature of the data set: CP: cardiopulmonary activity against histamine-induced bronchoconstriction in the dog. Format: in vivo. Particulars: histamine administration; vs theophylline. From the text: Int. Pharmacodyn. Therap. […] Pretreatment with bronchodilator drugs aims to block the bronchospastic response to histamine. Each dog serves as its own control.

Another data set is described as follows: LD50, mouse. The conditions noted are these: in vivo, po. Here is the method:
(§1) The LD50 was determined in three species, the mouse (male, 18-25 g), the albino rat (female, 150-200 g) and the albino guinea pig (male 180-280 g) by oral administration and in the albino rat by intraperitoneal administration. The animals are fasted overnight prior to testing. Six groups of 10 animals are used; five groups are dosed with the test substance, the sixth group serves as a control and receives the drug vehicle at the highest test concentration. The compounds were administered in a 0.5% gum tragacanth solution in distilled water using a constant logarithmic increment in dose. Dose volume ranged from […].
The animals were housed five per cage (rat and guinea pig) or ten per cage (mouse) with free access to food and water. The number of dead animals was recorded daily for five consecutive days. The total mortality per group of 10 for each dose level was recorded and LD50 with Confidence Limits calculated according to the method described by Weil, C. S., Biometrics 8(3): 249-263, 1952.

A further data set can be described thus: in vivo. The method, then: as §1
The animals were housed five per cage (rat and guinea pig) or ten per cage (mouse) with free access to food and water. The number of dead animals was recorded daily for five consecutive days.

The subject of data set [5] is antigen-induced wheal formation. Nature of the data set: PCA: passive cutaneous anaphylaxis in the rat. Format: in vivo. The conditions noted are these: 20 mg/kg po. The method, then: PCA: Antianaphylactic activity against passive cutaneous anaphylaxis in the rat, expressed as % protection against antigen-induced wheal formation.
The method used is that of Ogilvie, B. M., Immunology 12, 113-131 (1967). Reaginic […] antibodies develope in that rat following subcutaneous injection of Nippostrongylus brasiliensis larvae. Antisera, collected 28 days later are injected subcutaneously into new rats.

Structures are written as SMILES.

For `CCCC(C)Cn1c(=O)n(C)c(=O)c2[nH]c(C)nc21` (stereo not shown) [Compound 4373, 1,8-dimethyl-3-(2-methyl-1-pentyl)xanthine], the “BD, % protection” value in data set [1] (40 mpK po, 30') is recorded as 71%; in data set [1] (40 mpK po, 4h), 87%; in data set [1] (40 mpK po, 6h), 96%; in data set [1] (80 mpK po, 30') it was 81%; in data set [1] (80 mpK po, 4h) it was 100%. Further, the EC (maximum relaxation) in data set [2] was found to be 0.05 M. In addition, in data set [3] (20 mpK ip), the “AA, % protection” value is recorded as 54%.
For the compound `CC(C)Cn1c(=O)n(C)c(=O)c2[nH]cnc21` [Compound 4258], the “BD, % protection” value in data set [1] (15 mpK po, 30') is 45%; in data set [1] (15 mpK po, 2h), 75%; in data set [1] (15 mpK po, 4h) it was 39%. For the same compound, the “potency, in words” value in data set [1] is “equal potency”. The “lethal (animals)” value in data set [1] (25 mpK po) is 2/4. Further, the “dose showing lethal effects” value in data set [1] is recorded as 25 mpK. Also, the EC (maximum relaxation) in data set [2] amounted to 0.001 M. Also, the “AA, toxicity noted in place of % protection” value in data set [3] (2.0 mpK ip) is on record as “tox”.
Turning to `CCC(C)Cn1c(=O)n(C)c(=O)c2[nH]c(C)nc21` (stereo not shown) [Compound 4383, 1,8-dimethyl-3-(2-methyl-1-butyl) xanthine], the “bronchodilation in the dog, in words” value in data set [4] is “significantly reduces the decrease in pulmonary compliance and increase in pulmonary resistance due to histamine administration”. In addition, the LD50 at 120 h amounted to 66.6 mg/kg in the data set “LD50, mouse”; 24.6 mg/kg in “in vivo” (ip, rat); 21.7 mg/kg in “in vivo” (po, guinea pig); 88.7 mg/kg in “in vivo” (po, rat). Besides, the “Wheal Diameter, % Δ” value in data set [5] is listed as 50%. In data set [5], the “Wheal Intensity, % Δ” value is listed as 48%. Further, in data set [5] (control 1.50 ± 0.16), the “Wheal Diameter: Mean ± S.E.M., Response” value came to 0.74 ± 0.16 cm. The “Wheal Intensity: Mean ± S.E.M., Response” value in data set [5] (control 2.17 ± 0.21) came to 1.13. In addition, the “BD, % protection” value in data set [1] (10 mpK po, 30') is 35%; in data set [1] (10 mpK po, 2h) it was 63%; in data set [1] (10 mpK po, 6h) it was 66%; in data set [1] (20 mpK po, 1h), 92%; in data set [1] (20 mpK po, 4h), 100%; in data set [1] (20 mpK po, 6h), 97%. In addition, the “bronchodilation potency in the BD (guinea pig) assay, in words” value in data set [1] (10 mpK po, 4383 vs 4388) is recorded as “about the same bronchodilation potency as 4388”. In data set [1] (20 mpK po), the “toxic effects in the BD (guinea pig) assay, in words” value is “no toxic effects”. In addition, the EC (maximum relaxation) in data set [2] was 0.001 M. The “AA, % protection” value in data set [3] (2.5 mpK po) is listed as 58%; in data set [3] (4 mpK ip), 57%.
Consider `Cc1nc2c([nH]1)c(=O)n(C)c(=O)n2C` [Compound 4296], for which the “BD, % protection” value in data set [1] (100 mpK po, 8h) came to 23%; in data set [1] (150 mpK po, 30'), 68%; in data set [1] (150 mpK po, 8h) it was 85%. For the same compound, the EC (maximum relaxation) in data set [2] came to 0.0714 M.
With `Cn1c(=O)c2[nH]cnc2n(C)c1=O` [Theophylline, 1,3-dimethylxanthine], in data set [2], the EC (maximum relaxation) worked out at 0.1 M.
Turning to `Cc1nc2c([nH]1)c(=O)n(C)c(=O)n2CC(C)C` [Compound 4388, 1,8-dimethyl-3-isobutylxanthine], the “BD, % protection” value in data set [1] (10 mpK po, 1h) worked out at 76%; in data set [1] (10 mpK po, 4h) it was 73%; in data set [1] (10 mpK po, 6h), 80%. The “toxic effects in the BD (guinea pig) assay, in words” value in data set [1] (20 mpK po) is “pronounced toxicity and was even lethal to one animal”. In addition, in data set [1] (general statement), the “bronchodilator potency, in words” value was “great potency and is long-acting”. For the same compound, the “lethal (animals)” value in data set [1] (20 mpK po) is listed as 1/4. The EC (maximum relaxation) in data set [2] is 0.001 M. Also, the “AA, % protection” value in data set [3] (2.5 mpK po) was 50%; in data set [3] (75 mpK ip), 70%.
Consider `CCC(C)Cn1c(=O)n(C)c(=O)c2[nH]cnc21` (stereo not shown) [Compound 4280], for which the “BD, % protection” value in data set [1] (20 mpK po, 30') was determined as 86%; in data set [1] (20 mpK po, 1h) it was 86%; in data set [1] (20 mpK po, 2h) it was 80%; in data set [1] (20 mpK po, 4h) it was 13%. Moreover, the “potency, in words” value in data set [1] is recorded as “equal potency”. In data set [1] (80 mpK po), the “lethal (animals)” value was 3/8. Besides, the “dose showing lethal effects” value in data set [1] came out at 80 mpK. Moreover, the EC (maximum relaxation) in data set [2] was 0.001 M. Further, in data set [3] (15 mpK ip), the “AA, % protection” value is on record as 56%.

These data come from US4089959A, “Long-acting xanthine bronchodilators and antiallergy agents” (priority 1976, dated 1978).
